The values that follow come from patent US10641776B2, “Methods for measuring binding and cellular engagement of ligands with target proteins” (EUROFINS DISCOVERX CORPORATION, priority 2015, dated 2020).

pEC50, pIC50: −log10 of the molar value. Where only a bound is given, the exact number is not on record here.

In assay [1] the test system is c-Myc expression. Particulars: Ciceri et al., Nat Chem Biol. 2014; read-out: Published cell potency for reducing c-Myc expression: IC50; cited from earlier work.
The target of assay [2] is BRD4(1) (Homo sapiens, UniProt O60885). The following applies: 0-100 micromolar; 1 hour at room temperature; 45° C. for 30s. On the procedure: To carry out the assay, a fusion protein [BRD4(1)-ED], which also contains an NFκB DNA binding domain at the N-terminus, was constructed with BRD4(1) and a ProLabel™ enzyme donor (ED) fragment. […] The incubation was for 1 hour at room temperature. The samples were then heated to 45° C. for 30s. EA was subsequently added into the samples (along with luminescent substrate for beta-galactosidase) and complementation was measured by measuring luminescence.
To carry out the assays, two separate samples were prepared wherein one sample comprises BRD4(1)(fusion) and no inhibitor whereas another sample comprises BRD4(1)(fusion) and an inhibitor. […] Following incubation, samples were exposed to increased temperatures (25° C., 45° C., 50° C. and 55° C. respectively). The samples were then centrifuged to separate the precipitate.
To carry out the experiment, a fusion protein was constructed comprising NFκB-BRD4(1)-ED. […] The samples were then exposed to several temperatures (25° C., 45° C., 50° C. and 55° C. respectively).

In assay [3] the target is BRD4(1) bromodomain (Homo sapiens, UniProt O60885). The following applies: HEK293 cells, n=2. From the text:
2. […] 3. […] 4. Count cells. 5. […] 6. […] 7. […] 8. […] 9.

The target of assay [4] is T1, MTH1 (Homo sapiens, UniProt P36639). The following applies: read-out: Published MTH1 potency: In vitro EC50; cited from earlier work.
In assay [5] the target is MTH1 hydrolase catalytic domain (Homo sapiens, UniProt P36639). The assay is described as follows: In-cell pulse thermal denaturation EFC assay, MTH1 hydrolase in HEK293 cells. Type of assay: cell-based. Particulars: 3 hours with inhibitor at 37° C.; for pEC50: preliminary protocol.
Assay [6] concerns the target T1, MTH1. The following applies: read-out: Published MTH1 potency: Cellular IC50; cited from earlier work.
For assay [7], the system named is H3K9me2. The following applies: Vedadi et al., Nature Chemical Biology 2011; read-out: Published cell potency for reducing H3K9me2: IC50; cited from earlier work.
The target of assay [8] is T2, G9a catalytic domain (Homo sapiens, UniProt Q96KQ7).
T2 sequence (Q96KQ7 1-1210): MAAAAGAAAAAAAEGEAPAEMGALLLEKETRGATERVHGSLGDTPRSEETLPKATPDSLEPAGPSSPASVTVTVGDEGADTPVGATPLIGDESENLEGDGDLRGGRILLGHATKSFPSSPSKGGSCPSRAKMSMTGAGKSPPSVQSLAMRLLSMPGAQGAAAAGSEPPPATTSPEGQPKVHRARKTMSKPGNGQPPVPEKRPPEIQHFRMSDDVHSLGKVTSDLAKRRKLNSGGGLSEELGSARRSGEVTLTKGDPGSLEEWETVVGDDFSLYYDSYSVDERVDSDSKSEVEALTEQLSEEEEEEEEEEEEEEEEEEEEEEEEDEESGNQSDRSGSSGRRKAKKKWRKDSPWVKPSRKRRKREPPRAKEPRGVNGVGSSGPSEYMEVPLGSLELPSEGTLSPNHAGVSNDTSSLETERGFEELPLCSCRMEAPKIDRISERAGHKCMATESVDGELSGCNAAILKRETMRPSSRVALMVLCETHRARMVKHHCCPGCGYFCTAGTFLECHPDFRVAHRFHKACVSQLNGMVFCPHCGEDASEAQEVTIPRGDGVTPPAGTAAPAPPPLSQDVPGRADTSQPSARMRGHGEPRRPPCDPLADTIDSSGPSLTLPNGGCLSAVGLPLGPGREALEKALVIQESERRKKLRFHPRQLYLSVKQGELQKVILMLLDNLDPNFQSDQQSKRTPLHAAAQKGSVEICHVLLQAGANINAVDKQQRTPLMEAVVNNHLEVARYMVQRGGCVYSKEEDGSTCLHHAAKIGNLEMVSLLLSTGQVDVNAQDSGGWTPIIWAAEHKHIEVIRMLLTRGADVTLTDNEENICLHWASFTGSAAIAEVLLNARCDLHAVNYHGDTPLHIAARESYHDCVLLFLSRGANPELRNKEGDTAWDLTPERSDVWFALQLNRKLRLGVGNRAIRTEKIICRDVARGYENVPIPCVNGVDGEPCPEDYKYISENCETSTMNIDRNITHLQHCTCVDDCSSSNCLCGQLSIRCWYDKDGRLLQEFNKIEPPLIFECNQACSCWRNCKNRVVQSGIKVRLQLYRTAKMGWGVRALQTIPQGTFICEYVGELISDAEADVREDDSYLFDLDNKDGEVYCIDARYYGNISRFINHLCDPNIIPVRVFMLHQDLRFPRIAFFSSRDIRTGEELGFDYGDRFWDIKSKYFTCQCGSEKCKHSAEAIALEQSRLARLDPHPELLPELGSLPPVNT
The assay is described as follows: In-cell pulse thermal denaturation EFC assay, G9a methyltransferase in HEK293 cells. In kind it is cell-based. Particulars: 3 hour incubation at 37° C.; single 3 minute denaturation step at 48° C.
Description: The G9a catalytic domain is expressed with a C-terminal PL tag. A 3 hour incubation with inhibitor at 37° C. is followed by a single 3 minute denaturation step at 48° C.

Assay [9] concerns the target T3, G9a protein methyltransferase (Homo sapiens, UniProt Q96KQ7).
T3 sequence (Q96KQ7 1-1210): T2 sequence (Q96KQ7 1-1210)
Kind of assay: Cell-free single-step denaturation EFC binding assay, ED-tagged G9a. The following applies: single denaturation step of 3 minutes at 50° C.; signal increase from about 10^2 nM through 10^4 nM. On the procedure: (§1) Data were fitted with the Hill Equation and EC50s were calculated.
This proof of concept G9a study was performed using a single denaturation step of 3 minutes at 50° C.

For assay [10], the target named is T4, ABL1 protein kinase (Homo sapiens, UniProt P00519).
T4 construct: made in house; host or cells: cell extract
T4 sequence (P00519 whole entry): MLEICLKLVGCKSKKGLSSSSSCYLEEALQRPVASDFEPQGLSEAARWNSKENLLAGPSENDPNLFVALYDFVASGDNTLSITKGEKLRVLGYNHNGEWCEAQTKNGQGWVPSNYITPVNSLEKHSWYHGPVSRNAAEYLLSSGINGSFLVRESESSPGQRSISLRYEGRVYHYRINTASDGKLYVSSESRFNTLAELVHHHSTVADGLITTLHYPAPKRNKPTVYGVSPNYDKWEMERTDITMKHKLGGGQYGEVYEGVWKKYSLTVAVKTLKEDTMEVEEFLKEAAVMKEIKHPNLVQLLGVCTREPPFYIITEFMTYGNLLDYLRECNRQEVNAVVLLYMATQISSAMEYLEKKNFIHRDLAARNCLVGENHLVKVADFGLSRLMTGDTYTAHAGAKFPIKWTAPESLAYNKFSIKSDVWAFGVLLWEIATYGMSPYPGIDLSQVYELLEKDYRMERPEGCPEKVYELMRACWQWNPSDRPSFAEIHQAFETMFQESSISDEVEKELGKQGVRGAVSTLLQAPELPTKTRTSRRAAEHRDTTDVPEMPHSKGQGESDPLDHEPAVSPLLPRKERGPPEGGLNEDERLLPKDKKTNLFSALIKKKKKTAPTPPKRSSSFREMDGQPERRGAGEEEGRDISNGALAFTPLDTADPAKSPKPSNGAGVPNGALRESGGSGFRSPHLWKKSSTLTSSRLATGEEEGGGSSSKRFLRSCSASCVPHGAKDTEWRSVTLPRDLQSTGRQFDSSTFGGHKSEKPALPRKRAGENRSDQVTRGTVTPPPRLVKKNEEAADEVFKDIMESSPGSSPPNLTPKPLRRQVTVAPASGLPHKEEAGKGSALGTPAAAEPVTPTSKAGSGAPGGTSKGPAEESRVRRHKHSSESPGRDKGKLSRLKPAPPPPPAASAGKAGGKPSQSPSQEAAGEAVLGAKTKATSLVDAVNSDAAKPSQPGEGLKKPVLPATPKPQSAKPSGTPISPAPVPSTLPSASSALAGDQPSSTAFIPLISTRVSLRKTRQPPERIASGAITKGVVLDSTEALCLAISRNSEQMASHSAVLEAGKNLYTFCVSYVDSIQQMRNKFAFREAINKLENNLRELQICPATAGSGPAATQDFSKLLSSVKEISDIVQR
In kind it is binding. Particulars: seven inhibitors; 30 cycles of 7 seconds at 42° C. / 60 seconds at 25° C. How it is done:
as §1
EC50 dose response curves for the seven inhibitors shown on the graph (inhibitor name labels and corresponding curves are in the same left to right order) were measured against ED-tagged ABL1.

Broadly, the pIC50 is the IC50 on a negative log10 scale, so that one unit is a factor of ten. For the molecule `Cc1sc2c(c1C)C(c1ccc(Cl)cc1)=N[C@@H](CC(=O)OC(C)(C)C)c1nnc(C)n1-2` [JQ1, (6S)-4-(4-Chlorophenyl)-2,3,9-trimethyl-6H-thieno[3,2-f][1,2,4]triazolo[4,3-a][1,4]diazepine-6-acetic acid, 1,1-dimethylethyl ester], the pIC50 in assay [1] was ~7.00. In addition, in assay [2], the “Rescue of BRD4(1) fusion protein from heat denaturation, dose response” value was “rescue the fusion protein from denaturation in a dose-dependent manner”. Also, in [3], the “Assay Window” value was 3.5 +/− 0.14.
For orientation: pEC50 means the negative decadic logarithm of the EC50, by convention in mol/L. Take `COc1ccc2nc3c(c(C)nn3C)c(NCCOCCO)c2c1` [SCH 51344]: the pEC50 was 7.30 in assay [4], 6.43 in assay [5] (denaturation 45° C./1.5 min.) and 5.34 in assay [5] (denaturation 48° C./3.0 min.). Besides, the results for the “Assay Window” value in assay [5] (denaturation 45° C./1.5 min.) and in [5] (denaturation 48° C./3.0 min.) were 1.9 and 9.7, respectively. Moreover, the pIC50 in [6] is > 4.70.
For the molecule `COc1cc2c(NC3CCN(C(C)C)CC3)nc(C3CCCCC3)nc2cc1OCCCN1CCCC1` [UNC0538, 2-Cyclohexyl-6-methoxy-N-[1-(1-methylethyl)-4-piperidinyl]-7-[3-(1-pyrrolidinyl)propoxy]-4-quinazolinamine], the pIC50 in [7] was ~7.09. Besides, in [8], the “Assay Window” value worked out at 5.0. Further, the “Protection against denaturation of G9a, dose response” value in [9] is “increases in a dose-dependent manner”.
`CC(C)[C@H](CO)Nc1nc(Nc2ccc(C(=O)O)c(Cl)c2)c2ncn(C(C)C)c2n1` [purvalanol B]: the “Affinity rank order for ABL1 from dose response curves” value in [10] is on record as “lowest affinity”.
